Measurements published in PubChem BioAssay AID212 (DTP/NCI, 2004).
Values joined by “and” are separate entries in the source; they are usually repeats but may differ in a detail not shown here. Equal values may be shown once. Results filed as inconclusive are left out.

System: BDF1 mice, colon carcinoma 38 sc, T/C %
Assay: NCI In Vivo Anticancer Drug Screen. Data for tumor model Colon Carcinoma 38 (subcutaneous) in B6D2F1 (BDF1) mice
Settings: endpoint: median tumor weight (est.), higher = larger tumour
Summary of the method: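 Compound antitumor activity was assessed in mice carrying transplantable tumors. Survival or tumor size was recorded, and each value is the treated-group measurement divided by that of the vehicle-treated control group.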

CC/C(=C(/CC)c1ccc(O)cc1)c1ccc(O)cc1
T/C (dose: 12.5 mg/kg/injection, schedule: Q07DX003 (ip), vehicle: saline with Tween-80): 96 % of control | T/C (dose: 25.0 mg/kg/injection, schedule: Q07DX003 (ip), vehicle: saline with Tween-80): 153 % of control | T/C (dose: 100.0 mg/kg/injection, schedule: Q07DX003 (ip), vehicle: saline with Tween-80): 76 % of control | T/C (dose: 200.0 mg/kg/injection, schedule: Q07DX003 (ip), vehicle: saline with Tween-80): 179 % of control

CCC1CN2C(=N1)c1ccccc1-c1cc(Cl)ccc12 (stereo not drawn)
T/C (dose: 3.13 mg/kg/injection, schedule: Q07DX003 (ip), vehicle: suspension in saline): 83 % of control | T/C (dose: 6.25 mg/kg/injection, schedule: Q07DX003 (ip), vehicle: suspension in saline): 93 % of control | T/C (dose: 12.5 mg/kg/injection, schedule: Q07DX003 (ip), vehicle: suspension in saline): 118 % of control

Cc1c(N)nc(C(CC(N)=O)NCC(N)C(N)=O)nc1C(=O)NC(C(=O)NC(C)C(O)C(C)C(=O)NC(C(=O)NCCc1nc(-c2nc(C(=O)NCCCNCCCc3ccccn3)cs2)cs1)C(C)O)C(OC1OC(CO)C(O)C(O)C1OC1OC(CO)C(O)C(OC(N)=O)C1O)c1cnc[nH]1 (stereo not drawn)
T/C (dose: 0.1 mg/kg/injection, schedule: Q07DX003 (ip), vehicle: saline): 96 % of control | T/C (dose: 0.2 mg/kg/injection, schedule: Q07DX003 (ip), vehicle: saline): 67 % of control | T/C (dose: 0.4 mg/kg/injection, schedule: Q07DX002 (ip), vehicle: water): 81 % of control | T/C (dose: 0.4 mg/kg/injection, schedule: Q07DX003 (ip), vehicle: saline): 72 % of control | T/C (dose: 0.8 mg/kg/injection, schedule: Q07DX002 (ip), vehicle: water): 66 % of control | T/C (dose: 0.8 mg/kg/injection, schedule: Q07DX003 (ip), vehicle: saline): 105 % of control | T/C (dose: 1.6 mg/kg/injection, schedule: Q07DX002 (ip), vehicle: water): 75 % of control | T/C (dose: 1.6 mg/kg/injection, schedule: Q07DX003 (ip), vehicle: saline): 71 % of control | T/C (dose: 3.2 mg/kg/injection, schedule: Q07DX002 (ip), vehicle: water): 72 % of control | T/C (dose: 3.2 mg/kg/injection, schedule: Q07DX003 (ip), vehicle: saline): 60 % of control | T/C (dose: 6.25 mg/kg/injection, schedule: Q07DX002 (ip), vehicle: saline): 70 % of control | T/C (dose: 6.4 mg/kg/injection, schedule: Q07DX002 (ip), vehicle: water): 41 % of control | T/C (dose: 12.8 mg/kg/injection, schedule: Q07DX002 (ip), vehicle: water): 45 % of control | T/C (dose: 25.0 mg/kg/injection, schedule: Q07DX002 (ip), vehicle: saline): 32 % of control and 33 % of control | T/C (dose: 100.0 mg/kg/injection, schedule: Q07DX002 (ip), vehicle: saline): 29 % of control

CCN(CC)CC(C)(C)C(=O)/C=C/c1ccccc1
T/C (dose: 62.5 mg/kg/injection, schedule: Q07DX002 (ip), vehicle: saline): 102 % of control | T/C (dose: 125.0 mg/kg/injection, schedule: Q07DX002 (ip), vehicle: saline): 52 % of control

C1OC1C1CO1 (stereo not drawn)
T/C (dose: 10.0 mg/kg/injection, schedule: Q07DX002 (ip), vehicle: saline): 99 % of control and 107 % of control | T/C (dose: 20.0 mg/kg/injection, schedule: Q07DX002 (ip), vehicle: saline): 119 % of control and 120 % of control | T/C (dose: 40.0 mg/kg/injection, schedule: Q07DX002 (ip), vehicle: saline): 96 % of control

COc1cc2cc(c1Cl)N(C)C(=O)C[C@H](OC(=O)[C@H](C)N(C)C(C)=O)[C@]1(C)O[C@H]1[C@H](C)[C@@H]1C[C@@](O)(NC(=O)O1)[C@H](OC)C=C/C=C(\C)C2
T/C (dose: 0.01 mg/kg/injection, schedule: Q07DX003 (ip), vehicle: Klucel (hydroxypropylcellulose) (HPC)): 99 % of control | T/C (dose: 0.03 mg/kg/injection, schedule: Q07DX003 (ip), vehicle: Klucel (hydroxypropylcellulose) (HPC)): 114 % of control | T/C (dose: 0.06 mg/kg/injection, schedule: Q07DX003 (ip), vehicle: Klucel (hydroxypropylcellulose) (HPC)): 84 % of control | T/C (dose: 0.12 mg/kg/injection, schedule: Q07DX003 (ip), vehicle: Klucel (hydroxypropylcellulose) (HPC)): 73 % of control | T/C (dose: 0.25 mg/kg/injection, schedule: Q07DX003 (ip), vehicle: Klucel (hydroxypropylcellulose) (HPC)): 164 % of control | T/C (dose: 0.5 mg/kg/injection, schedule: Q07DX003 (ip), vehicle: Klucel (hydroxypropylcellulose) (HPC)): 67 % of control | T/C (dose: 30.0 micrograms/kg/injection, schedule: Q07DX003 (ip), vehicle: Klucel (hydroxypropylcellulose) (HPC)): 116 % of control | T/C (dose: 125.0 micrograms/kg/injection, schedule: Q07DX003 (ip), vehicle: Klucel (hydroxypropylcellulose) (HPC)): 120 % of control | T/C (dose: 250.0 micrograms/kg/injection, schedule: Q07DX003 (ip), vehicle: Klucel (hydroxypropylcellulose) (HPC)): 90 % of control | T/C (dose: 500.0 micrograms/kg/injection, schedule: Q07DX003 (ip), vehicle: Klucel (hydroxypropylcellulose) (HPC)): 75 % of control | T/C (dose: 1000.0 micrograms/kg/injection, schedule: Q07DX003 (ip), vehicle: Klucel (hydroxypropylcellulose) (HPC)): 57 % of control
